Peptide text beside a SMILES is read from it. * marks the point of attachment. Biotin = O=C1N[C@H]2[C@H](CS[C@H]2CCCCC(=O)*)N1

The subject of data set [1] is T98G human glioblastoma cells. In words: Disintegration of the microtubule network in T98G cells (anti-tubulin immunostaining, cell counting). It is filed as cell-based. The settings on record: T98G cells, 10 µM biotinylated peptide, 6 hours; anti-tubulin immunostaining; minimum 200 cells per experiment; mean ± S.E.M., triplicated. Put shortly: (§1)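 Cells on cover slips were cultured 6 h with 10 μM biotinylated peptide, permeabilized, and stained with anti-β-tubulin plus fluorescent streptavidin. By fluorescence/confocal microscopy, ≥200 cells per experiment were scored for peptide uptake and for a normal versus destroyed microtubule network; at least three repeats.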

Data set [2] has as its system T98G human glioblastoma cells. In words: Peptide incorporation into T98G cells (immunocytochemistry, cell counting). The format is cell-based. The conditions noted are these: for Peptide incorporation (% of cells): T98G cells, 10 µM biotinylated peptide, 6 hours, Alexa-labeled avidin/streptavidin fluorescence microscopy, minimum 200 cells per experiment, mean ± S.E.M., triplicated. In short, it runs like this: as §1

The test system of a further data set is glioma cells. The settings on record: shown previously; cited from earlier work. The source says: However, contrary to the known CPPs, which are composed mostly of arginines and lysines, the NFL-TBS.40-63 peptide contains only 2 arginine residues and no lysine. […] In addition, the cell penetrating activity appears to correlate with a particular structural pattern.

Data set [3] concerns Human adrenal carcinoma SW13 cells. Nature of the data set: Effect on MT network of SW13 cells (immunocytochemistry). The conditions noted are these: 10 µM, 6 hours. It is filed as cell-based. Here is the method:
(§2) Figure 1 Internalization and effects on glioblastoma T98G cells of the wild type peptide NFL-TBS.40-63 and peptides from the alanine scan. (A): Human glioblastoma T98G cells were incubated in the presence of different peptides at 10 µM during 6 hours. MTs were detected by immunostaining using an anti-tubulin antibody (red), and biotinylated peptides were detected using Alexa-labeled avidin (green). While the original NFL-TBS.40-63 peptide is able to penetrate in these cells, the replacement of valine-14 by alanine typically abolished this property. White bars, 20 µm. (B) Human adrenal carcinoma SW13 cells were incubated in the presence of NFL-TBS.40-63 peptide (10 µM, 6 hours). MTs appear in red, peptide in green, nuclei in blue. White bars, 20 µm. (C): We quantified by microscopy the percentage of T98G cells containing the peptide and those with a destroyed MT network. Experiments were triplicated and a minimum of 200 cells was examined in each experiment. Data are presented as mean and S.E.M. (bars). Asterisks indicate significant level versus control: * p<0.05; ** p<0.005; *** p<0.001. As glioblastoma cells are known to have multiple mutations and abnormalities, the shaded area corresponds to the percentage of cells where MTs are disorganized even in the absence of peptide.
(§3) Cells were plated on cover slips and cultured in media containing biotinylated peptides (10 µM) for 6 hours. […]

Data set [4] shares this test system. Nature of the data set: Peptide entry into SW13 cells (immunocytochemistry). The format is cell-based. The settings on record: 10 µM, 6 hours. Here is the method:
as §2, §3

A short description of data set [5]: Structural (thermal) stability by circular dichroism at 220 nm. It is filed as physicochemical. Here is the method: Circular dichroism (CD) spectra were measured in a J-810 CD spectrometer (Jasco, Japan) in step mode (bandwidth: 2 nm; interval: 0.1 nm; response time: 0.125 s). The spectra were averaged over 3 scans to increase the signal to noise ratio. To optimize the measurements, a 1 cm×0.2 cm mini-quartz cell with four windows (Hellema, Germany) was used in such a way that the spectra from 260 to 200 nm were measured with a 1 cm pathlength and those between 220 and 185 nm with 0.2 cm pathlength. After normalization for pathlength (1 cm), the superimposition of two separated spectra in the 200–220 nm region was verified and the entire spectra reconstituted. The temperature of measurement was controlled with a Peltier-effect temperature controller, and was usually 20°C. […] All the CD experiments were performed with 20 µM peptide under 3 buffer conditions: pure water, 2 mM SDS and 10 mM potassium phosphate pH 7.4 with 200 mM KF.
A general note: Circular dichroism is widely used to follow secondary structure.

A short description of data set [6]: Secondary structure estimation from CD spectra. The format is physicochemical. The settings on record: Reed's reference set. The protocol: Circular dichroism (CD) spectra were measured in a J-810 CD spectrometer (Jasco, Japan) in step mode (bandwidth: 2 nm; interval: 0.1 nm; response time: 0.125 s). The spectra were averaged over 3 scans to increase the signal to noise ratio. To optimize the measurements, a 1 cm×0.2 cm mini-quartz cell with four windows (Hellema, Germany) was used in such a way that the spectra from 260 to 200 nm were measured with a 1 cm pathlength and those between 220 and 185 nm with 0.2 cm pathlength. After normalization for pathlength (1 cm), the superimposition of two separated spectra in the 200–220 nm region was verified and the entire spectra reconstituted. The temperature of measurement was controlled with a Peltier-effect temperature controller, and was usually 20°C. The structural stability of peptides was studied by measuring the variation in CD signal at 220 nm (bandwidth: 10 nm; interval: 1 s; response time: 0.5 s; pathlength: 1 cm) when the temperature was increased by 1°C/min from 20 to 85°C. All the CD experiments were performed with 20 µM peptide under 3 buffer conditions: pure water, 2 mM SDS and 10 mM potassium phosphate pH 7.4 with 200 mM KF.
The secondary structures were estimated from the CD spectra with Jasco secondary structure estimation software. The spectra from […] were decomposed to α-helix, β-sheet, β-turn and random coil elements using either Reed's or Yang's reference set as reference spectrum of each element as described, [38]. We usually obtained better fits using Reed's reference.

Setting [7] is: KF/phosphate buffer pH 7.4, 20 µM.

As to `CC(C)C[C@H](NC(=O)[C@H](CO)NC(=O)[C@@H](NC(=O)[C@H](CCCNC(=N)N)NC(=O)[C@H](CCCNC(=N)N)NC(=O)[C@H](CO)NC(=O)[C@H](Cc1ccc(O)cc1)NC(=O)[C@H](CO)NC(=O)[C@H](CO)NC(=O)[C@H](CO)NC(=O)[C@H](CO)NC(=O)CNC(=O)[C@H](CO)NC(=O)CCCC[C@@H]1SC[C@@H]2NC(=O)N[C@@H]21)C(C)C)C(=O)N[C@@H](CO)C(=O)N[C@@H](CO)C(=O)N[C@@H](CO)C(=O)N[C@H](C(=O)N1CCC[C@H]1C(=O)N[C@@H](C)C(=O)N[C@@H](CO)C(=O)N[C@@H](Cc1ccc(O)cc1)C(=O)N[C@@H](CO)C(=O)N[C@@H](CO)C(=O)N[C@@H](Cc1ccc(O)cc1)C(N)=O)C(C)C` [NFL-SBT, reference compound] (Biotin-SGSSSSYSRRVSLSSSVPASYSSY-NH2), the “Disintegration of MT (% of cells)” value in data set [1] is 32.41±0.87 % of cells. In addition, the “Peptide incorporation (% of cells)” value in data set [2] was 0 % of cells. In the data set with glioma cells, the “Cell penetration / internalization (in words)” value was “do not penetrate in cells”.

Regarding `CC(C)C[C@H](NC(=O)[C@H](CO)NC(=O)[C@H](CO)NC(=O)[C@H](CO)NC(=O)[C@@H](NC(=O)[C@@H]1CCCN1C(=O)[C@H](C)NC(=O)[C@H](CO)NC(=O)[C@H](Cc1ccc(O)cc1)NC(=O)[C@H](CO)NC(=O)[C@H](CO)NC(=O)[C@H](Cc1ccc(O)cc1)NC(=O)CCCC[C@@H]1SC[C@@H]2NC(=O)N[C@@H]21)C(C)C)C(=O)N[C@@H](CO)C(=O)N[C@H](C(=O)N[C@@H](CCCNC(=N)N)C(=O)N[C@@H](CCCNC(=N)N)C(=O)N[C@@H](CO)C(=O)N[C@@H](Cc1ccc(O)cc1)C(=O)N[C@@H](CO)C(=O)N[C@@H](CO)C(=O)N[C@@H](CO)C(=O)N[C@@H](CO)C(=O)NCC(=O)N[C@@H](CO)C(N)=O)C(C)C` [NFL-TBS.40-63] (Biotin-YSSYSAPVSSSLSVRRSYSSSSGS-NH2), the “Effect on MT network of SW13 cells” value in data set [3] is recorded as “without affecting the MT network”. In addition, in data set [4], the “Entry into SW13 cells” value is given as “enters in SW13 cells”. Further, the “Disintegration of MT (% of cells)” value in data set [1] is given as 58.4±2.3 % of cells. Moreover, the “Refolding on lowering temperature” value in data set [5] (CD 220 nm, KF/phosphate buffer, 70 to 10°C at 1°C per min and after 12 hours at 20°C) was “no refolding was observed”. For the same molecule, the “Tm of thermal unfolding” value in data set [5] (CD signal at 220 nm, 20 µM peptide, KF/phosphate buffer (10 mM potassium phosphate pH 7.4, 200 mM KF), 1°C/min) was “about 40 °C”. In data set [5] (CD, 20 µM peptide in 2 mM SDS, up to 70°C), the “Structural stability with increasing temperature” value is reported as “stable”. Further, in data set [6] (2 mM SDS, 20 µM), the random coil content is 40%, the α-helix content is 20% and the β-sheet content was 40%. In data set [6] (setting [7]), the random coil content was 36%, the α-helix content is given as 7% and the β-sheet content was 56%. For the same molecule, in data set [6] (pure water, 20 µM, 20°C), the random coil content is 75% and the β-sheet content is on record as 25%. For the same molecule, in data set [2], the “Peptide incorporation (% of cells)” value is reported as 51.2±4.2 % of cells. In data set [2] (peptide heated in KF/phosphate buffer (thermally unfolded)), the “Cell penetration of the peptide once heated” value was “could not penetrate into the cells”.
